Source: US20090053290A1, “TRANSDERMAL DRUG DELIVERY COMPOSITIONS AND TOPICAL COMPOSITIONS FOR APPLICATION ON THE SKIN” (priority 2006, published 2009)

Assays:
[1] = in vivo; cited from earlier work
[2] = in vivo; cited from earlier work; remark: listed apart in the source
onychomycosis = details: nail lacquer, topical; cited from earlier work
bovine pericardium = experiment: Melting temperature measurement of fixed tissue (cross-linking), pericardium; details: 48 hours; PA 0.5% in PBS, GA 0.625% in PBS; n = 3; in °C
Description: (§1) The fixed tissues and fresh tissues were assayed for their melting temperature by heating tissue strips (1×2 cm^2, n=3). The melting temperature was recorded when tissues started to shrink.

collagenase = format: biochemical
Description: Tissue integrity was checked at the end of the incubation using a standard histological method (hematoxylin-eosin (H&E)). […] At predetermined intervals, 1.0 mL of solution was taken out and filtered through a 0.45-μM cellulose filter to separate solubilized collagen from insolubilized matrix. The amount of solubilized collagen was determined after total acid hydrolysis in 6N HCl for 24 hours at 100° C. by measuring hydroxyproline. The results are expressed as a percentage of the total collagen solubilized.

human skin fibroblasts = experiment: Cell proliferation and collagen synthesis of fibroblasts cultured on treated pericardium; format: cell-based; details: p<0.005 for treated pericardium, FIG. 9
Description: Discs, 15 mm in diameter, were punched out from PA-treated bovine pericardium and inserted into the bottom of 24-well plates. After washing and equilibrating with PBS, human skin fibroblasts (8×10^4/well, third passage kindly provided by Dr. Warren Garner, University of Southern California) were placed on top of the tissues. After 48 hours of culture in 10% FBS/DMEM, the medium was changed to a labeling medium ([^3H]thymidine, 10 μCi/mL, 0.5% FBS/DMEM) followed by a 24 hour labeling period. Cell proliferation was assayed and collagen synthesis recorded as [^3H]OH-proline incorporation in a culture medium containing 25 μg/mL ascorbic acid, 25 μg/mL β-APN and 25 μCi/mL [^3H]proline in 0.5% FBS/DMEM after labeling for 48 hours.

bovine tendon = experiment: Melting temperature measurement of fixed tissue (cross-linking), tendon; details: 48 hours; PA 0.5% in PBS, GA 0.625% in PBS; n = 3; in °C
Description: as §1

Fischer 344 rats = test system: Fischer 344 rats
Description: Three-week-old Fischer 344 rats were obtained from Harlan Sprague Dawley, Inc. (Indianapolis, Ind.). NIH and University of Southern California IACUC guidelines for the care and use of laboratory animals were observed. […] The samples were retrieved after 3 and 6 weeks post-operation, and samples were processed for H&E and von Kossa staining, the latter to determine the extent of calcification.

NIH 3T3 cells = details: mouse, 72 h
Description: NIH 3T3 cells were used in these studies. Cells were cultured in 24-well plates at a density of 5×10^6 cells/well in 10% FBS/DMEM overnight. […] Cells were incubated for 72 hours before cell counting and morphological studies.

CC(=O)Oc1ccccc1C(=O)O [Aspirin, aspirin]
period of inhibition of blood clotting [1]: 4 to 7 days

CC1=C(/C=C/C(C)=C/C=C/C(C)=C/C(=O)O)C(C)(C)CCC1 [tretinoin, All-trans-retinoic acid]
absorption [2]: less than 2%

Cc1cc(C2CCCCC2)n(O)c(=O)c1 [Ciclopirox]
cure rate (onychomycosis): < 10%

O=CCCCC=O [GA, glutaraldehyde]
Melting temperature, pericardium (bovine pericardium): 94 ± 1.5 | collagen fibril structure after 24 hours of collagenase digestion (H&E) (collagenase): remained intact | collagen synthesis / deposition (hydroxyproline incorporation) (human skin fibroblasts): inhibit collagen synthesis | Melting temperature, tendon (bovine tendon): 84 ± 1.0 | degradation of fixed tissue after subcutaneous implantation (summary) (Fischer 344 rats; periods ranging from 3 and 6 weeks): no apparent degradation | calcification of implant (Von Kossa staining) (Fischer 344 rats; rat, in vivo, sc): dystrophic calcification | implant degradation, six weeks postoperatively (Fischer 344 rats; subcutaneous): still intact | implant integrity, three weeks postoperatively (Fischer 344 rats; subcutaneous): retained their integrity | tissue reaction to implant, one week postoperatively (Fischer 344 rats; subcutaneous, treated pericardium, H&E): lesser inflammatory reaction | concentration above which cells could not survive (NIH 3T3 cells): greater than 0.6 μg/mL | concentration at which cytotoxicity was observed (NIH 3T3 cells): ≤ 600 ng/mL
